From US20130116231A1, “TYROSINE KINASE INHIBITORS” (Merck Sharp & Dohme Corp., priority 2010, published 2013)

Biological target: T1, human c-Met (Homo sapiens, UniProt P08581)
T1 construct: Recombinant GST-tagged cytosolic domains of human c-Met; 6xHis; made in house; host or cells: Sf9 or Sf21 insect cells (baculovirus)
Assay: in vitro kinase assay (homogeneous time-resolved tyrosine kinase assay, METKA)
Assay type: biochemical
Conditions: recombinant GST-tagged c-Met cytosolic domain, HTRF, 50 μM MgATP; read-out: Biological Activity (METKA IC50) Activity Code
Text: Recombinant GST-tagged cytosolic domains of human c-Met and other receptor tyrosine kinases including mouse c-Met, human Ron, KDR, IGFR, EGFR, FGFR, Mer, TrkA and Tie2 are used to determine whether the compounds of the instant invention modulate the enzymatic activities of these kinases.
Soluble recombinant GST-tagged cytosolic domains of c-Met and other receptor tyrosine kinases are expressed in a baculovirus system (Pharmingen) according to a protocol recommended by the manufacturer. The c-DNA encoding each cytosolic domain is subcloned into a baculovirus expression vector (pGcGHLT-A, B or C, Pharmingen) containing an in frame 6× histidine tag and a GST tag. The resulting plasmid construct and BaculoGold baculovirus DNA (Pharmingen) are used to co-transfect Sf9 or Sf21 insect cells. After confirming expression of GST-tagged kinase fusion, a high titer recombinant baculovirus stock is produced, expression conditions are optimized, and a scaled up expression of rat KDR-GST fusion is performed. The fusion kinase is then purified from the insect cell lysate by affinity chromatography using glutathione agarose (Pharmingen). The purified protein is dialyzed against 50% glycerol, 2 mM DTT, 50 mM Tris-HCl (pH 7.4) and stored at −20° C. The protein concentrations of the fusion proteins are determined using Coomassie Plus Protein Assay (Pierce) with BSA as standard.
The kinase activities of c-Met and other kinases are measured using a modified version of the homogeneous time-resolved tyrosine kinase assay described by Park et al. (1999, Anal. Biochem. 269:94-104).
The procedure for determining the potency of a compound to inhibit c-Met kinase comprises the following steps: • 1. Prepare 3-fold serial diluted compound solutions in 100% dimethyl sulfoxide (DMSO) at 20× of the desired final concentrations in a 96 well plate. • 2. Prepare a master reaction mix containing 6.67 mM MgCl2, 133.3 mM NaCl, 66.7 mM Tris-HCl (pH 7.4), 0.13 mg/ml BSA, 2.67 mM dithiothreitol, 0.27 nM recombinant c-Met and 666.7 nM biotinylated synthetic peptide substrate (biotin-ahx-EQEDEPEGDYFEWLE-CONH2) (SEQ.ID.NO.:1). • 3. In a black assay plate, add 2.5 μl of compound solution (or DMSO) and 37.5 μl of master reaction mix per well. Initiate the kinase reaction by adding 10 μl of 0.25 mM MgATP per well. Allow the reactions to proceed for 80 min at room temperature. The final conditions for the reaction are 0.2 nM c-Met, 0.5 μM substrate, 50 μM MgATP, […], 100 mM NaCl, 2 mM DTT, 0.1 mg/ml BSA, 50 mM Tris (pH 7.4) and 5% DMSO. • 4. Stop the kinase reaction with 50 μl of Stop/Detection buffer containing 10 mM EDTA, 25 mM HEPES, 0.1% TRITON X-100, 0.126 μg/ml Eu-chelate labeled anti-phosphotyrosine antibody PY20 (cat. #AD0067, PerkinElmer) and 45 μg/ml Streptavidin-allophycocyanin conjugate (cat. #PJ25S, Prozyme). • 5. Read HTRF signals on a Victor reader (PerkinElmer) in HTRF mode after 60 min. • 6. IC50 is determined by fitting the observed relationship between compound concentration and HTRF signal with a 4-parameter logistic equation. Essentially the same procedure was used to determine the potency of compounds to inhibit mouse c-Met, human Ron, KDR, IGFR, EGFR, FGFR, Mer, TrkA and Tie2 except that the concentration of enzyme varied in individual assays (0.2 nM mouse c-Met; 2.5 nM Ron, 8 nM KDR; 0.24 nM IGFR; 0.24 nM EGFR; 0.14 nM FGFR; 16 nM Mer; 8 nM TrkA; 8 nM Tie2).

T1 sequence (P08581 956-1390 limits assumed): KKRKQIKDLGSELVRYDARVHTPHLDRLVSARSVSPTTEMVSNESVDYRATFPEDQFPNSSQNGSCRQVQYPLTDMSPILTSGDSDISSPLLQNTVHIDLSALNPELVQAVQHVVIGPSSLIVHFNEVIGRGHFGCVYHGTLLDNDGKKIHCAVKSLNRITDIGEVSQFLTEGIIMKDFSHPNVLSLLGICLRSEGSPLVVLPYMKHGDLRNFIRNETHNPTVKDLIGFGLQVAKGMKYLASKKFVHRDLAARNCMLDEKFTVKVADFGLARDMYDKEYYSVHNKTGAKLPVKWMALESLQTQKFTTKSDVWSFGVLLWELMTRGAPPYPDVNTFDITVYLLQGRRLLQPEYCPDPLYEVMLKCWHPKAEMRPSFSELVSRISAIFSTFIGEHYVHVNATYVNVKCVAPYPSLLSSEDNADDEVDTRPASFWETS

| IC50 | SMILES |
| --- | --- |
| 1000 to 3000 nM | Cn1cc(-n2ccc(=O)c(COc3cccc4cnccc34)n2)cn1 [Example 2, 3-[(isoquinolin-5-yloxy)methyl]-1-(1-methyl-1H-pyrazol-4-yl)pyridazin-4(1H)-one] |
| 100 to 1000 nM | COC(=O)c1cnc2ccc(OCc3nn(-c4cnn(C)c4)ccc3=O)cc2c1 [Example 95, Methyl 6-{[1-(1-methyl-1H-pyrazol-4-yl)-4-oxo-1,4-dihydropyridazin-3-yl]methoxy}quinoline-3-carboxylate] |
| < 100 nM | N#Cc1cc(Cl)cc(-n2ccc(=O)c(COc3ccc4ncccc4c3)n2)c1 [Example 6, 3-chloro-5-{4-oxo-3-[(quinolin-6-yloxy)methyl]pyridazin-1(4H)-yl}benzonitrile] |
| < 100 nM | Cn1cc(-n2ccc(=O)c(COc3ccc4ncsc4c3)n2)cn1 [Example 105, 3-[(1,3-Benzothiazol-6-yloxy)methyl]-1-(1-methyl-1H-pyrazol-4-yl)pyridazin-4(1H)-one] |
| < 100 nM | CCc1ccnc2ccc(OCc3nn(-c4cnn(C)c4)ccc3=O)cc12 [Example 98, 3-{[(4-Ethylquinolin-6-yl)oxy]methyl}-1-(1-methyl-1H-pyrazol-4-yl)pyridazin-4(1H)-one] |
| < 100 nM | Cn1cc(-n2ccc(=O)c(COc3ccc4ncc(NC(=O)OC(C)(C)C)cc4c3)n2)cn1 [Example 110, tert-butyl (6-{[1-(1-methyl-1H-pyrazol-4-yl)-4-oxo-1,4-dihydropyridazin-3-yl]methoxy}quinolin-3-yl)carbamate] |
| 100 to 1000 nM | CCOc1cnc2ccc(NCc3nn(-c4cnn(C)c4)ccc3=O)cc2c1 [Example 103, 3-{[(3-ethoxyquinolin-6-yl)amino]methyl}-1-(1-methyl-1H-pyrazol-4-yl)pyridazin-4(1H)-one] |
| < 100 nM | Cn1cc(-n2ccc(=O)c(COc3ccc4ncc(F)cc4c3)n2)cn1 [Example 37, 3-{[(3-fluoroquinolin-6-yl)oxy]methyl}-1-(1-methyl-1H-pyrazol-4-yl)pyridazin-4(1H)-one] |
| < 100 nM | CCn1cc(-n2ccc(=O)c(COc3ccc4ncc(-c5ccc(OC)nc5)cc4c3)n2)cn1 [Example 82, 1-(1-ethyl-1H-pyrazol-4-yl)-3-({[3-(6-methoxypyridin-3-yl)quinolin-6-yl]oxy}methyl)pyridazin-4(1H)-one] |
| < 100 nM | Cn1cc(-n2ccc(=O)c(COc3ccc4ncc(O)cc4c3)n2)cn1 [Example 61, 3-Hydroxy-6-{[1-(1-methyl-1H-pyrazol-4-yl)-4-oxo-1,4-dihydropyridazin-3-yl]methoxy}quinolinium chloride] |
| < 100 nM | CCn1cc(-n2ccc(=O)c(OC(C)c3ccc4nccc(OC)c4c3)n2)cn1 (single isomer, unassigned) [Example 146, 1-(1-ethyl-1H-pyrazol-4-yl)-3-[1-(4-methoxyquinolin-6-yl)ethoxy]pyridazin-4(1H)-one] |
| 1000 to 3000 nM | COCCOc1cnc2ccc(OCc3nn(-c4cccc(C(=O)N(C)C)c4)ccc3=O)cc2c1 [Example 52, 3-[3-({[3-(2-methoxyethoxy)quinolin-6-yl]oxy}methyl)-4-oxopyridazin-1(4H)-yl]-N,N-dimethylbenzamide] |
| 100 to 1000 nM | COc1ccnc2ccc(C(C)Oc3nn(-c4cnn(C)c4)ccc3=O)cc12 (stereo not shown) [Example 131, 3-[1-(4-methoxyquinolin-6-yl)ethoxy]-1-(1-methyl-1H-pyrazol-4-yl)pyridazin-4(1H)-one] |
| < 100 nM | COc1cnc2ccc(OCc3nn(-c4cnn(C)c4)ccc3=O)cc2c1 [Example 35, 3-{[(3-methoxyquinolin-6-yl)oxy]methyl}-1-(1-methyl-1H-pyrazol-4-yl)pyridazin-4(1H)-one] |
| 100 to 1000 nM | Cn1cc(-n2ccc(=O)c(COc3ccc4ncncc4c3)n2)cn1 [Example 27, 1-(1-methyl-1H-pyrazol-4-yl)-3-[(quinazolin-6-yloxy)methyl]pyridazin-4(1H)-one] |
| 1000 to 3000 nM | COCCOC(=O)Nc1ccc(OCc2nn(-c3cnn(C)c3)ccc2=O)cc1 [Example 119, 2-methoxyethyl (4-{[1-(1-methyl-1H-pyrazol-4-yl)-4-oxo-1,4-dihydropyridazin-3-yl]methoxy}phenyl)carbamate] |
| 100 to 1000 nM | Cn1cc(-n2ccc(=O)c(COc3ccc4ncc(-n5cc(COC6CCNCC6)nn5)cc4c3)n2)cn1 [Example 41, 1-(1-methyl-1H-pyrazol-4-yl)-3-{[(3-{4-[(piperidin-4-yloxy)methyl]-1H-1,2,3-triazol-1-yl}quinolin-6-yl)oxy]methyl}pyridazin-4(1H)-one] |
| 100 to 1000 nM | CCOCCOc1ccnc2ccc(OCc3nn(-c4cnn(C)c4)ccc3=O)cc12 [Example 33, 3-({[4-(2-ethoxyethoxy)quinolin-6-yl]oxy}methyl)-1-(1-methyl-1H-pyrazol-4-yl)pyridazin-4(1H)-one] |
| < 100 nM | Cn1cc(-n2ccc(=O)c(COc3ccc4nccnc4c3)n2)cn1 [Example 11, 1-(1-methyl-1H-pyrazol-4-yl)-3-[(quinoxalin-6-yloxy)methyl] pyridazin-4(1H)-one] |
| < 100 nM | COc1ccnc2ccc(C(C)Oc3nn(-c4cnn(C)c4)ccc3=O)cc12 (single isomer, unassigned) [Example 145, 3-[1-(4-methoxyquinolin-6-yl)ethoxy]-1-(1-methyl-1H-pyrazol-4-yl)pyridazin-4(1H)-one] |
| < 100 nM | COCCOc1cnc2ccc(OCc3nn(-c4cc(Cl)cc(C#N)c4)ccc3=O)cc2c1 [Example 29, 3-chloro-5-[3-({[3-(2-methoxyethoxy)quinolin-6-yl]oxy}methyl)-4-oxopyridazin-1(4H)-yl]benzonitrile] |
| < 100 nM | CCc1cnc2ccc(OCc3nn(-c4cnn(C)c4)ccc3=O)cc2c1 [Example 72, 3-{[(3-ethylquinolin-6-yl)oxy]methyl}-1-(1-methyl-1H-pyrazol-4-yl)pyridazin-4(1H)-one] |
| < 100 nM | CCn1cc(-n2ccc(=O)c(COc3ccc4ncc(-c5ccc(S(C)(=O)=O)cc5)cc4c3)n2)cn1 [Example 76, 1-(1-Ethyl-1H-pyrazol-4-yl)-3-[({3-[4-(methylsulfonyl)phenyl]quinolin-6-yl}oxy)methyl]pyridazin-4(1H)-one] |
| < 100 nM | Cn1cc(-n2ccc(=O)c(COc3ccc4ncc(-c5cnn(C6CNC6)c5)cc4c3)n2)cn1 [Example 93, 3-[({3-[1-(Azetidin-3-yl)-1H-pyrazol-4-yl]quinolin-6-yl}oxy)methyl]-1-(1-methyl-1H-pyrazol-4-yl)pyridazin-4(1H)-one] |
| < 100 nM | Cc1ccnc2ccc(OCc3nn(-c4cnn(C)c4)ccc3=O)cc12 [Example 50, 1-(1-methyl-1H-pyrazol-4-yl)-3-{[(4-methylquinolin-6-yl)oxy]methyl}pyridazin-4(1H)-one] |
| 1000 to 3000 nM | Cn1cc(-n2ccc(=O)c(CCc3ccnc4ccccc34)n2)cn1 [Example 54, 1-(1-methyl-1H-pyrazol-4-yl)-3-(2-quinolin-4-ylethyl)pyridazin-4(1H)-one] |
| < 100 nM | COc1cnc2ccc(C(C)Oc3nn(-c4cnn(C)c4)ccc3=O)cc2c1 (single isomer, unassigned) [Example 140, 3-[1-(3-methoxyquinolin-6-yl)ethoxy]-1-(1-methyl-1H-pyrazol-4-yl)pyridazin-4(1H)-one] |
| < 100 nM | CCOc1cnc2ccc(SCc3nn(-c4cnn(C)c4)ccc3=O)cc2c1 [Example 100, 3-{[(3-ethoxyquinolin-6-yl)sulfanyl]methyl}-1-(1-methyl-1H-pyrazol-4-yl)pyridazin-4(1H)-one] |
